Test results as given in patent US20230365602A1, “COMPOUND FOR USE IN THE TREATMENT OF PROTOZOAL DISEASES AND PROCESS FOR PRODUCTION OF SAID COMPOUND” (QUADREL S.R.L., priority 2020, published 2023).
Values joined by “and” are separate entries in the source; they are usually repeats but may differ in a detail not shown here. Equal entries are not always repeated. Where two headings read alike, the source gives them in different places.

Columns and labels:
[1] = tested on: L. infantum axenic amastigotes expressing luciferase; assay: In vivo model of infection with L. infantum axenic amastigotes expressing luciferase; settings: ten consecutive oral treatments with 10 mg/kg, 2 weeks after last treatment
Method: FIG. 4 illustrates the in vivo activity of compounds 18 and 19 in a model of infection with L. infantum axenic amastigotes expressing luciferase (10 consecutive treatments with 10 mg/kg of each compound, evaluated by limiting dilution assay 2 weeks after the last treatment).
In vivo activity of compounds 18 and 19 (ten consecutive oral treatments with 10 mg/kg of each compound, followed by a break of 2 weeks after last treatment), was studied in a model of infection with axenic amastigotes expressing luciferase, essentially as described in (Mendes Costa D. et al, J. Sci Rep. 2019 Dec. 12; 9(1):18989; Tavares J. et al., Methods Mol Biol. 2019; 1971:289-301). (FIG. 4).

[2] = tested on: L. donovani 1SR intracellular amastigotes; assay: Anti-leishmanial activity, L. donovani intracellular amastigotes; type: cell-based; settings: Leishmania donovani; read-out: L. donovani 1SR intracellular amastigotes IC50 ± SEM
From the text: (§1) The in vitro antiparasitic activity of compound 5-cyclopentadecylpentyl (2-(trimethylammonio)ethyl) phosphate (19) against L. infantum (2 species), L. amazonensis, L. donovani and L. major is presented in Table 3, as well as the toxicity against the human monocytic cell Line THP1 and PMA-differentiated THP-1 cells.

HDAC9 = HDAC9 (Homo sapiens, UniProt Q9UKV0); assay: HDAC9 activity inhibition; type: biochemical
Sequence of HDAC9 (Q9UKV0 whole entry, species assumed): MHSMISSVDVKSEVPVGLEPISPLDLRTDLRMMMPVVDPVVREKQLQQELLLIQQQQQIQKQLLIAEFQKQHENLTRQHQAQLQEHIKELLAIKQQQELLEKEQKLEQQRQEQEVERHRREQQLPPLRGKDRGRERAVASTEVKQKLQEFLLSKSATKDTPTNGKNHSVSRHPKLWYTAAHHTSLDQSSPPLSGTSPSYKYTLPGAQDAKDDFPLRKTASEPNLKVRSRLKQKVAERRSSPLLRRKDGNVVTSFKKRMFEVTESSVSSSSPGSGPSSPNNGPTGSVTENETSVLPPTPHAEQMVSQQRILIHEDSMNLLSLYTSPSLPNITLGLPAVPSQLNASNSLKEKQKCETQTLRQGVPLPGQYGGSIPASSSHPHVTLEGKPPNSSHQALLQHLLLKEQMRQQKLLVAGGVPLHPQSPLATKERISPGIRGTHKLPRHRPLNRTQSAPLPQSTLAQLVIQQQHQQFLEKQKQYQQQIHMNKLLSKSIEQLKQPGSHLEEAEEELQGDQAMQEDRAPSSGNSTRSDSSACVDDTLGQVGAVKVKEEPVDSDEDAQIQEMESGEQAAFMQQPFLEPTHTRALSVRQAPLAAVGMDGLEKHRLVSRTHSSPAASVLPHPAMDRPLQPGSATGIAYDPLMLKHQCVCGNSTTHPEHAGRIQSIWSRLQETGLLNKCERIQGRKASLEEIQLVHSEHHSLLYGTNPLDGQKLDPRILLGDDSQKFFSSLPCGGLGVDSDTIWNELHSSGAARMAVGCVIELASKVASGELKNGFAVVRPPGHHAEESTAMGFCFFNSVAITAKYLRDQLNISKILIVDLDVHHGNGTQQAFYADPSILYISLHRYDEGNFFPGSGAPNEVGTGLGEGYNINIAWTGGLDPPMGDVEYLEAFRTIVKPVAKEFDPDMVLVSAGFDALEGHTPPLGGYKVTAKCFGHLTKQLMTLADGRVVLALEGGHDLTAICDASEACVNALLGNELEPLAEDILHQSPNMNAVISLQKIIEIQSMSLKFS

[3] = Snapshot pharmacokinetics in plasma after oral gavage; type: in vivo, mice
Method: Pharmacology of 5-cyclopentadecylpentyl (2-(trimethylammonio)ethyl) phosphate (19) in mice.
Blood samples were collected from the tail vein at 0, 0.5, 0.75, 1, 3, 24 and 72 hours into heparinized tubes. Moreover, biodistribution of the molecule, 72h after administration, was determined in several organs of the treated mice, namely brain, liver, spleen, kidney, heart and bone marrow. […] J Chromatogr B, 865: 55-62) by liquid chromatography mass spectrometry (LC-MS/MS).

T. b. brucei GVR35 = assay: Stage II HAT mice model, live imaging; type: in vivo
Human plasma stability = type: in vitro ADME; settings: samples at 0, 15, 30, 45, 60, 120 minutes
Method: Furthermore, compound 19 is stable in human hepatic microsomes (samples were taken at 0, 5, 15, 30, 45 minutes) (Table 8), while the human plasma stability is 99.7% (samples were taken at 0, 15, 30, 45, 60, 120 minutes).

W1-38 = assay: Early toxicity: W1-38 cell growth; type: cell-based; settings: for Avg % Cell growth W1-38: Table 5
CYP2C19 = CYP2C19 (Homo sapiens, UniProt P33261); assay: Early toxicity: CYP2C19 inhibition; type: in vitro ADME; settings: human, mean ± SD, Table 4a
Sequence of CYP2C19 (P33261 whole entry): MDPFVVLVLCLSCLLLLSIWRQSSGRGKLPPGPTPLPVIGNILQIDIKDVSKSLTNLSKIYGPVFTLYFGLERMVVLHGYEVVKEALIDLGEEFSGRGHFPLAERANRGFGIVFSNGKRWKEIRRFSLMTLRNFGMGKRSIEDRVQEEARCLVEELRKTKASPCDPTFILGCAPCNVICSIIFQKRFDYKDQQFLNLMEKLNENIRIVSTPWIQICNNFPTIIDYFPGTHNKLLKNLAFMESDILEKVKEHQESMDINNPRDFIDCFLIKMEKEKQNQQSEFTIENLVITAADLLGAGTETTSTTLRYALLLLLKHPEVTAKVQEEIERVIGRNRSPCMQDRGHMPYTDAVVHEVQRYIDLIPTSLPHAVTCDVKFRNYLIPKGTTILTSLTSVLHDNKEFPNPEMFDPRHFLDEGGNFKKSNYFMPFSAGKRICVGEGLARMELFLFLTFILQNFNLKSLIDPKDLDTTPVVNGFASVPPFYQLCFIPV

[4] = Gel formation in saline solutions of NaCl; type: physicochemical; settings: same conditions
Method: This effect is more pronounced at concentrations between 7 and 40 mg/mL at a temperature range between 20° C. and 40° C., preferably at ambient temperature. The homogeneity of the product facilitates homogeneity of dosing, i.e, variability among doses is lower, easy administration of the compound and higher patient acceptability.

[5] = tested on: L. infantum intracellular amastigotes LEM235; assay: Anti-leishmanial activity, L. infantum LEM235 intracellular amastigotes; type: cell-based; settings: for IC50: Leishmania infantum, read-out: L. infantum intracellular amastigotes LEM235 IC50 ± SEM
From the text: as §1

CYP2C9 = CYP2C9 (Homo sapiens, UniProt P11712); assay: Early toxicity: CYP2C9 inhibition; type: in vitro ADME
Sequence of CYP2C9 (P11712 whole entry): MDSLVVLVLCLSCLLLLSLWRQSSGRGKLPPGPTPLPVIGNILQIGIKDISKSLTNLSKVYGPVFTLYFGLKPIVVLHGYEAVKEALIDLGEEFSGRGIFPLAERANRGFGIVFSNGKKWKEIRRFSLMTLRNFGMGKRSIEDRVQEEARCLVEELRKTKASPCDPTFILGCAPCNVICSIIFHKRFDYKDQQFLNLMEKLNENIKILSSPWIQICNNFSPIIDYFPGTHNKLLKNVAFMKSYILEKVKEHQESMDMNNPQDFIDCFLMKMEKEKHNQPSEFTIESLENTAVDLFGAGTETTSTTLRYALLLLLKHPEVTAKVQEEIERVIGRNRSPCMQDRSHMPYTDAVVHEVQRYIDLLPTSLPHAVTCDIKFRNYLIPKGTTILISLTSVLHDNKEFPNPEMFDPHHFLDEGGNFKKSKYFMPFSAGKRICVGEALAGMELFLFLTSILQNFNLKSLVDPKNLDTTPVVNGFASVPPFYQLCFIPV

mitochondria = assay: Early toxicity: mitochondrial toxicity; type: cell-based; settings: for Ang % Toxicity Mitochondria: Table 5
Leishmania infantum = assay: Efficacy in mice infected with Leishmania infantum, 10-day treatment; type: in vivo, BALB/c mice; settings: 10 consecutive days; for parasite burden in the spleen: 20 mg/kg and 10 mg/kg
Method: (A) Experimental approach; (B) and (C) are graphic presentations of parasite burden in the spleen and the liver, respectively, evaluated by limiting dilution assay.
The treatments were reduced to 10 consecutive days at doses of 2.5, 5, 10 or 20 mg/Kg/day (FIG. 3).

CYP1A2 = biological target: T1, CYP1A2 (Homo sapiens, UniProt P05177); assay: Early toxicity: CYP1A2 inhibition; type: in vitro ADME; settings: human, mean ± SD, Table 4a
T1 sequence (P05177 1-516): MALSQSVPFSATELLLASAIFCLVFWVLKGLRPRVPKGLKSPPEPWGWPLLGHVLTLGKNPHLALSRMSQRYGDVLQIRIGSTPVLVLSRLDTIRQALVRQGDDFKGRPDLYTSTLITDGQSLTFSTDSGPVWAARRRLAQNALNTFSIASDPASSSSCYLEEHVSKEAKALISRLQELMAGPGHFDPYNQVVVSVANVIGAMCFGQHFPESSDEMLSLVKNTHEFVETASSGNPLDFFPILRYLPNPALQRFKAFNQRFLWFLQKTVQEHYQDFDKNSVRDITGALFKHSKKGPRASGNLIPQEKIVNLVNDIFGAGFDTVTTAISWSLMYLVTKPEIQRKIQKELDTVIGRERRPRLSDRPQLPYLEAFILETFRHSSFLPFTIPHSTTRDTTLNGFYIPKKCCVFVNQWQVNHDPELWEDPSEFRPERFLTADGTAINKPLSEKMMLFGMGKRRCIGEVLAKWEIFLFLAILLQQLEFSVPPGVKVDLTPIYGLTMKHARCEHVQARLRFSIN

HDAC6 = HDAC6 (Homo sapiens, UniProt Q9UBN7); assay: HDAC6 activity inhibition; type: biochemical
Sequence of HDAC6 (Q9UBN7 whole entry, species assumed): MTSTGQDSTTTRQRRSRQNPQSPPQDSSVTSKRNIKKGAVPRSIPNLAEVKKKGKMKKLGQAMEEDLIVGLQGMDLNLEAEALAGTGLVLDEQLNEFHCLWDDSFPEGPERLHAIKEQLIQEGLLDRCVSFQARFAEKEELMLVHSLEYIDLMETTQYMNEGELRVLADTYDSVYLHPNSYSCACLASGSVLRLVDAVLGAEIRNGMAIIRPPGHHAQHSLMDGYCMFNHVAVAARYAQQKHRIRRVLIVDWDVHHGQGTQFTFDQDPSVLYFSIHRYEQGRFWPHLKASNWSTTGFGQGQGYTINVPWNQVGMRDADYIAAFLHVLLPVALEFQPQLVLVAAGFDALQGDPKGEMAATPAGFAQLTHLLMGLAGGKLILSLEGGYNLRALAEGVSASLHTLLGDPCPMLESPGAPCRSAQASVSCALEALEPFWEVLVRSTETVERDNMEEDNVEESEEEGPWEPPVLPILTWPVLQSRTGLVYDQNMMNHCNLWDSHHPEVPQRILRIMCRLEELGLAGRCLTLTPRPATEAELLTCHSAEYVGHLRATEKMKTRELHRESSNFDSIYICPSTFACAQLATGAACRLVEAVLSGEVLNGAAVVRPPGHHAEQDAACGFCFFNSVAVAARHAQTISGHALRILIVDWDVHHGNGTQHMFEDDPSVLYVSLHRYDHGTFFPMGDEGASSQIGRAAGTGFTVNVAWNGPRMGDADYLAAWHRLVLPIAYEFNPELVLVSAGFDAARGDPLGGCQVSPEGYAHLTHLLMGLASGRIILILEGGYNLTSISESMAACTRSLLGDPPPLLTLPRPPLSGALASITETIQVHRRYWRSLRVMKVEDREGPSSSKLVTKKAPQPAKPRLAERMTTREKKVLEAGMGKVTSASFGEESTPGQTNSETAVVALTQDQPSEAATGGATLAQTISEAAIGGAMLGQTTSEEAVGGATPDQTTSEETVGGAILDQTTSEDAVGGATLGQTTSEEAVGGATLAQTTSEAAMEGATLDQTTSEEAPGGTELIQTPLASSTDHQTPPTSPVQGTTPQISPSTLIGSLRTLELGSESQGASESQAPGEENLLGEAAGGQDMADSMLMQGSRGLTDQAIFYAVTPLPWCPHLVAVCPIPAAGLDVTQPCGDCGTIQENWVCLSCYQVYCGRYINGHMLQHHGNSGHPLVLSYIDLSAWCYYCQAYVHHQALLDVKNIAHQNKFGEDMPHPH

[6] = Cytotoxicity, Human Monocytic Cell Line THP1; type: cell-based
From the text: as §1

[7] = in humans; cited from earlier work
[8] = BALB/c (Compound 19), NMRI (miltefosine), mouse, in vivo, po, 20 mg/kg
[9] = BALB/c, mouse, in vivo, po, 20 mg/kg

C[N+](C)(C)CCOP(=O)([O-])OCCCCCC1CCCCCCCCCCCCCC1 [Compound 19, 5-cyclopentadecylpentyl (2-(trimethylammonio)ethyl) phosphate]
parasites in the bone marrow [1]: under the detection limit | IC50 [2]: 24 ± 3.8 µM | inhibition of the activity of HDAC9 (HDAC9; 100 μM): does not inhibit | Cmax in plasma relative to the EC50 for L. infantum in vitro ([3]; 20 mg/kg oral gavage): 10 fold | AUC(0-inf) ([3]; BALB/c (Compound 19), NMRI (miltefosine), mouse, plasma, healthy mice, 20 mg/kg oral gavage, Table 10, read-out: AUC (0-∞)): 967 ± 471 µg·h/mL | AUC(0-inf) ([3]; BALB/c (Compound 19), NMRI (miltefosine), mouse, plasma, healthy mice, 20 mg/kg oral gavage, Table 10, read-out: AUC (0-∞) (μM h/mL)): 2090 µM·h | Cmax ([3]; BALB/c (Compound 19), NMRI (miltefosine), mouse, plasma, healthy mice, 20 mg/kg oral gavage, Table 10, read-out: Cmax): 33.4 µM | Cmax ([3]; BALB/c (Compound 19), NMRI (miltefosine), mouse, plasma, healthy mice, 20 mg/kg oral gavage, Table 10, read-out: Cmax (μg/mL)): 15.4 ± 9.3 µg/mL | half-life ([3]; BALB/c (Compound 19), NMRI (miltefosine), mouse, plasma, healthy mice, 20 mg/kg oral gavage, Table 10, read-out: t1/2 (converted)): 17.4 ± 4.2 h | Tmax ([3]; BALB/c (Compound 19), NMRI (miltefosine), mouse, healthy mice, 20 mg/kg oral gavage, plasma, Table 10, read-out: tmax): 24 h | Ke (h − 1) ([3]; healthy BALB/c mice, 20 mg/kg gavage, Table 13): 0.049 h − 1 | Ke ([3]; healthy mice, 20 mg/kg oral gavage, Table 10): 0.049 h⁻¹ | AUC(0-inf) ([3]; mouse, plasma, po, healthy BALB/c mice, 20 mg/kg gavage, Table 13, read-out: AUC (0-∞)): 967 ± 471 µg·h/mL | AUC(0-inf) ([3]; mouse, plasma, po, healthy BALB/c mice, 20 mg/kg gavage, Table 13, read-out: AUC (0-∞) (μM h/mL)): 2090 µM·h | Cmax ([3]; mouse, plasma, po, healthy BALB/c mice, 20 mg/kg gavage, Table 13, read-out: Cmax): 33.4 µM | Cmax ([3]; mouse, plasma, po, healthy BALB/c mice, 20 mg/kg gavage, Table 13, read-out: Cmax (μg/mL)): 15.4 ± 9.3 µg/mL | Tmax ([3]; mouse, plasma, po, healthy BALB/c mice, 20 mg/kg gavage, Table 13, read-out: tmax): 24 h | half-life ([3]; mouse, plasma, po, healthy BALB/c mice, 20 mg/kg gavage, Table 13, read-out: t½ (converted)): 17.4 ± 4.2 h | average reduction of signal (average radiance) in the brain region (T. b. brucei GVR35; 50 mg/kg daily for 13 days, compared to beginning of treatment (day 21)): 99.96% | reduction of infection (T. b. brucei GVR35; 50 mg/kg/day PO, 13 days): > 99% | signal in the region of the brain lost (T. b. brucei GVR35; after 4 treatments (day 25), 50 mg/kg daily): 99.95% | overall and brain infection (T. b. brucei GVR35; compound 19 50 mg/kg/day PO): able to significantly reduce the overall infection and also in the brain | Human plasma Metabolic stability (%) (Human plasma stability): 99.7% | % cell growth W1-38 (W1-38; 10 μM): 95.66 ± 19.68% | Avg % Cell growth W1-38 (W1-38; 10 μM): 95.66 ± 19.68 (10 μM) % | inhibition at 10 µM (CYP2C19): -18.2 ± 7.01% | gel formation [4]: homogeneous gel product | IC50 [5]: 0.7 ± 0.4 µM | Selectivity Index CC50/IC50 ([5]; THP1 CC50 / IC50 L. infantum LEM235): 714 | inhibition at 10 µM (CYP2C9; human, mean ± SD, Table 4a): -17.5 ± 2.31% | % mitochondrial toxicity (mitochondria; 10 μM, 100% mitotoxic, 0% not mitotoxic): −3.22 ± 5.44% | Ang % Toxicity Mitochondria (mitochondria; 10 μM): −3.22 ± 5.44 (10 μM) % | reduction of parasite burden, spleen (Leishmania infantum; 2.5 mg/kg): 91±6% | reduction of parasite burden, spleen (Leishmania infantum; 5 mg/kg): 99±1% | parasite burden in the spleen (Leishmania infantum): able to maintain parasite burden below the detection limit | parasite load in the liver (Leishmania infantum; all treatments (20, 10, 5, 2.5 mg/kg)): maintained the parasite load under the detection limit | inhibition at 10 µM (CYP1A2): -32.1 ± 9.3% | inhibition of the activity of HDAC6 (HDAC6; 100 μM): does not inhibit | CC50 ([6]; human monocytic cell line THP1, read-out: Cytotoxicity-Human Monocytic Cell Line THP1 CC50 ± SD): > 500 µM

CCCCCCCCCCCCCCCCOP(=O)([O-])OCC[N+](C)(C)C [Miltefosine, hexadecylphosphocholine, reference compound]
IC50 [2]: 12.7 ± 3.3 µM | inhibition of the activity of HDAC9 (HDAC9; 10 μM): did not inhibit | AUC(0-inf) [3, 8]: 2.4e+06 ng·h/mL and 5960 µM·h | Cmax [3, 8]: 30600 ng/mL and 75.1 µM | Tmax [3, 8]: 24 h | half-life [3, 8]: 43.3 ± 5.5 h | Ke (h − 1) ([3]; BALB/c, mouse, in vivo, 20 mg/kg): 0.016 ± 0.002 h − 1 | AUC(0-inf) [3, 9]: 2.4e+06 ng·h/mL and 5960 µM·h | Cmax [3, 9]: 30600 ng/mL and 75.1 µM | Tmax [3, 9]: 24 h | half-life [3, 9]: 43.3 ± 5.5 h | infection outcome (words) (T. b. brucei GVR35; miltefosine treated animals, sacrificed after 7 treatments): no reduction in infection | weight loss associated to the treatment (T. b. brucei GVR35; miltefosine treated infected animals): constant weight loss | half-life [7]: 100 to 200 h | Avg % Cell growth W1-38 (W1-38; 10 μM): 113.50 ± 26.66 (10 μM) % | % cell growth W1-38 (W1-38; at 1 μM): 113.5 ± 26.66% | inhibition at 10 µM (CYP2C19): 7.92 ± 15.5% | gel formation [4]: not observed | IC50 [5]: 6.7 ± 1 µM | Avg % inhibition CYP2C9 (CYP2C9; 10 μM, Table 5): −0.80 ± 38.33 (10 μM) % | % inhibition CYP2C9 (CYP2C9; 10 μM, mean ± SD, Table 4a): −0.8 ± 38.32% | Ang % Toxicity Mitochondria (mitochondria; 10 μM): 3.99 ± 8.95 (10 μM) % | % mitochondrial toxicity (mitochondria; at 1 μM): 3.39 ± 8.95% | reduction of parasite burden, spleen (Leishmania infantum; 2.5 mg/kg): 64±33% | reduction of parasite burden, spleen (Leishmania infantum; 5 mg/kg): 70±36% | parasite burden in the spleen (Leishmania infantum): not able to maintain parasite burden under the detection limit | average reduction of parasite load, spleen (Leishmania infantum; 20 and 10 mg/kg): > 99% | reduction of average parasite burden, liver (Leishmania infantum; all tested concentrations): more than 98% | inhibition at 10 µM (CYP1A2): -20.6 ± 11.8% | inhibition of the activity of HDAC6 (HDAC6; 10 μM): did not inhibit | CC50 [6]: 28.6 ± 2.48 µM
